Literature values as cited in patent US12201639B2, “Aqueous oral pharmaceutical suspension compositions” (ReveraGen BioPharma, Inc., priority 2019, dated 2025).

Columns and labels:
[1] = target: T1, glucocorticoid receptor (Homo sapiens, UniProt P04150); details: pre-clinical data
T1 sequence (P04150 1-777): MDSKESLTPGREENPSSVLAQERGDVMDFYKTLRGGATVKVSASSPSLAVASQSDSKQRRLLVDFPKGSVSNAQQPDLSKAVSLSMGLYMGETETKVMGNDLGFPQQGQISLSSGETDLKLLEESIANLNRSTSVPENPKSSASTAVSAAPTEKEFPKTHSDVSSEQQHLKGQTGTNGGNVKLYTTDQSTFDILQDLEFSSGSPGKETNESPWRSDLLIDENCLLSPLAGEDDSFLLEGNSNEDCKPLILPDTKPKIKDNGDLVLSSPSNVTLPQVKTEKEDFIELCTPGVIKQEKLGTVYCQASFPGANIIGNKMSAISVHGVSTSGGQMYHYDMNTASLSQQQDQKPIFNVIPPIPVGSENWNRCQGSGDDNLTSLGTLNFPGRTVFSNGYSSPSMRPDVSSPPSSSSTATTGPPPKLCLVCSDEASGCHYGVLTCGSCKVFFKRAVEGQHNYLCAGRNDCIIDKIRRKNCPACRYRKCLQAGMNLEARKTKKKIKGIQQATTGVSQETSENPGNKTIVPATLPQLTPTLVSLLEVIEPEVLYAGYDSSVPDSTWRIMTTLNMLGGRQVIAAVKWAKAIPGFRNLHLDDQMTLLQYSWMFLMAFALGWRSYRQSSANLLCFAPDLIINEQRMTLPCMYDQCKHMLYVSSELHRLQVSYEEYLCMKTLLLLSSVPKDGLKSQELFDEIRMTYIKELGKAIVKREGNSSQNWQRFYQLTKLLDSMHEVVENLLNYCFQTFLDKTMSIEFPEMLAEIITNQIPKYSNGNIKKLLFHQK

[2] = tested on: mouse models of inflammatory states; details: compared with prednisolone

In the case of C[C@@H]1C[C@H]2[C@@H]3CCC4=CC(=O)C=C[C@]4(C)C3=CC[C@]2(C)[C@@]1(O)C(=O)CO [vamorolone, 17α,21-dihydroxy-16α-methylpregna-1,4,9 (11)-triene-3,20-dione], the “binding to the glucocorticoid receptor” value [1] is listed as “binds potently” and the “side effect profiles (growth stunting, bone fragility) in mouse models” value [2] is listed as “dramatically improves side effect profiles”.
